Assay results as given in patent US6960574B2, “Antagonists of RF-amide neuropeptides” (University of Florida, priority 2002, dated 2005).
Peptide text beside a SMILES is read from it. * marks the point of attachment. Dansyl = CN(C)c1cccc2c(S(=O)(=O)*)cccc12

Tested on: receptor labeled by the radioiodinated analogue of 1 (4, [125I]-YLFQPQRF-NH2); neuropeptide FF receptor
Experiment: Competitive radioligand binding against 4 ([125I]Y8F-amide)
Settings: mixture-based positional scanning; difference from averaged radioligand displacement of whole library (0); about 80 a.u. = 10-fold change in Ki
Text: Additionally, three-dimensional (3-D) molecular models of the known smaller-size neuropeptide FF antagonists 3 and 3a were constructed and their low-energy conformations were obtained in the AMBER force-field [Weiner, et al., J. Comput. Chem. 1986, 7, […].] by molecular dynamics calculations involving simulated annealing. A semi-empirical quantum chemical method with the PM3 parameterization [Stewart, J. Comput. Chem. 1989, 10, 209-220.] was used for the final geometry optimization. […] At least one of the rings in domain B is aromatic. No similarity between 3 and 3a outside these domains were apparent; therefore, the simultaneous presence of A and B domains in the structure of neuropeptide FF (1) antagonists is critical to the invention. Apparently, structural subunits (domain C) outside domains A and B should function in a cooperative manner in directing the pharmacophores into proper geometric positions when improved binding to the cognate receptor is to be obtained, which is associated with the improvement of the desired pharmacological effect. An approach involving mixture-based synthetic combinatorial libraries and positional scanning [(a) Houghten, et al., J. Med Chem. 1999, 42, 3743-3778.] was adopted in the search for preferred structural motifs in domain C that assist in achieving this objective in this invention. To allow for the use of 3 as a reference in this process, the guadinino group (A) was incorporated as part of an L-2-amino-5-{[amino(imino)methyl]amino}pentanoyl (arginyl, R, Arg) residue and 5-dimethylamino-1-naphthalenesulphonyl (dansyl) was chosen to form B (However, it must be emphasized that both R and dansyl are replaceable with moieties that bestow A and B domain attributes described in the invention).
Upon screening for residues to replace the glutamine of 3, serine (S) was the only building block in this position that increased the displacement of 4 in the radioligand-binding assay. Therefore, motifs present in dansyl-Gly-Ser-Arg-NH2, dansyl-Gly-Gln-Arg-NH2, dansyl-Gln-Ser-Arg-NH2, and dansyl-Gln-Gln-Arg-NH2 were chosen based on their affinity to the cognate receptor for further consideration as primary templates when designing the domain C of the compounds described in the invention herein. […]

Relative Binding Index (RBI) [a.u.]	Compound
11	C[C@H](NS(=O)(=O)c1cccc2c(N(C)C)cccc12)C(=O)N[C@@H](Cc1ccc(O)cc1)C(=O)N[C@@H](CCCNC(=N)N)C(N)=O [Dansyl-AYR-amide] (Dansyl-Ala-Tyr-Arg-NH2)
−55	C[C@H](NC(=O)[C@H](CC(=O)O)NS(=O)(=O)c1cccc2c(N(C)C)cccc12)C(=O)N[C@@H](CCCNC(=N)N)C(N)=O [Dansyl-DAR-amide] (Dansyl-Asp-Ala-Arg-NH2)
−11	CN(C)c1cccc2c(S(=O)(=O)N[C@@H](CC(=O)O)C(=O)N[C@@H](Cc3c[nH]cn3)C(=O)N[C@@H](CCCNC(=N)N)C(N)=O)cccc12 [Dansyl-DHR-amide] (Dansyl-Asp-His-Arg-NH2)
−8	CN(C)c1cccc2c(S(=O)(=O)N[C@@H](CC(=O)O)C(=O)N[C@@H](CCCCN)C(=O)N[C@@H](CCCNC(=N)N)C(N)=O)cccc12 [Dansyl-DKR-amide] (Dansyl-Asp-Lys-Arg-NH2)
−6	CSCC[C@H](NC(=O)[C@H](CC(=O)O)NS(=O)(=O)c1cccc2c(N(C)C)cccc12)C(=O)N[C@@H](CCCNC(=N)N)C(N)=O [Dansyl-DMR-amide] (Dansyl-Asp-Met-Arg-NH2)
15	CN(C)c1cccc2c(S(=O)(=O)N[C@@H](CC(=O)O)C(=O)N[C@@H](CO)C(=O)N[C@@H](CCCNC(=N)N)C(N)=O)cccc12 [Dansyl-DSR-amide] (Dansyl-Asp-Ser-Arg-NH2)
0	C[C@@H](O)[C@H](NC(=O)[C@H](CC(=O)O)NS(=O)(=O)c1cccc2c(N(C)C)cccc12)C(=O)N[C@@H](CCCNC(=N)N)C(N)=O [Dansyl-DTR-amide] (Dansyl-Asp-Thr-Arg-NH2)
−10	CC(C)[C@H](NC(=O)[C@H](CC(=O)O)NS(=O)(=O)c1cccc2c(N(C)C)cccc12)C(=O)N[C@@H](CCCNC(=N)N)C(N)=O [Dansyl-DVR-amide] (Dansyl-Asp-Val-Arg-NH2)
3	CN(C)c1cccc2c(S(=O)(=O)N[C@@H](CC(=O)O)C(=O)N[C@@H](Cc3c[nH]c4ccccc34)C(=O)N[C@@H](CCCNC(=N)N)C(N)=O)cccc12 [Dansyl-DWR-amide] (Dansyl-Asp-Trp-Arg-NH2)
−1	CN(C)c1cccc2c(S(=O)(=O)N[C@@H](CCC(=O)O)C(=O)N[C@@H](CC(=O)O)C(=O)N[C@@H](CCCNC(=N)N)C(N)=O)cccc12 [Dansyl-EDR-amide] (Dansyl-Glu-Asp-Arg-NH2)
22	CN(C)c1cccc2c(S(=O)(=O)N[C@@H](CCC(=O)O)C(=O)NCC(=O)N[C@@H](CCCNC(=N)N)C(N)=O)cccc12 [Dansyl-EGR-amide] (Dansyl-Glu-Gly-Arg-NH2)
11	CN(C)c1cccc2c(S(=O)(=O)N[C@@H](CCC(=O)O)C(=O)N[C@@H](Cc3cnc[nH]3)C(=O)N[C@@H](CCCNC(=N)N)C(N)=O)cccc12 [Dansyl-EHR-amide] (Dansyl-Glu-His-Arg-NH2)
23	CC[C@H](C)[C@H](NC(=O)[C@H](CCC(=O)O)NS(=O)(=O)c1cccc2c(N(C)C)cccc12)C(=O)N[C@@H](CCCNC(=N)N)C(N)=O [Dansyl-EIR-amide] (Dansyl-Glu-Ile-Arg-NH2)
8	CC(C)C[C@H](NC(=O)[C@H](CCC(=O)O)NS(=O)(=O)c1cccc2c(N(C)C)cccc12)C(=O)N[C@@H](CCCNC(=N)N)C(N)=O [Dansyl-ELR-amide] (Dansyl-Glu-Leu-Arg-NH2)
15	CN(C)c1cccc2c(S(=O)(=O)N[C@@H](CCC(=O)O)C(=O)N[C@@H](CCCNC(=N)N)C(=O)N[C@@H](CCCNC(=N)N)C(N)=O)cccc12 [Dansyl-ERR-amide] (Dansyl-Glu-Arg-Arg-NH2)

The remaining lines, values behind:

Compound	Relative Binding Index (RBI) [a.u.]
C[C@H](NS(=O)(=O)c1cccc2c(N(C)C)cccc12)C(=O)N[C@@H](Cc1c[nH]c2ccccc12)C(=O)N[C@@H](CCCNC(=N)N)C(N)=O [Dansyl-AWR-amide] (Dansyl-Ala-Trp-Arg-NH2)	21
CN(C)c1cccc2c(S(=O)(=O)N[C@@H](CC(=O)O)C(=O)N[C@@H](CC(=O)O)C(=O)N[C@@H](CCCNC(=N)N)C(N)=O)cccc12 [Dansyl-DDR-amide] (Dansyl-Asp-Asp-Arg-NH2)	−24
CN(C)c1cccc2c(S(=O)(=O)N[C@@H](CC(=O)O)C(=O)N[C@@H](CCC(=O)O)C(=O)N[C@@H](CCCNC(=N)N)C(N)=O)cccc12 [Dansyl-DER-amide] (Dansyl-Asp-Glu-Arg-NH2)	−5
CN(C)c1cccc2c(S(=O)(=O)N[C@@H](CC(=O)O)C(=O)N[C@@H](Cc3ccccc3)C(=O)N[C@@H](CCCNC(=N)N)C(N)=O)cccc12 [Dansyl-DFR-amide] (Dansyl-Asp-Phe-Arg-NH2)	−7
CN(C)c1cccc2c(S(=O)(=O)N[C@@H](CC(=O)O)C(=O)NCC(=O)N[C@@H](CCCNC(=N)N)C(N)=O)cccc12 [Dansyl-DGR-amide] (Dansyl-Asp-Gly-Arg-NH2)	0
CC[C@H](C)[C@H](NC(=O)[C@H](CC(=O)O)NS(=O)(=O)c1cccc2c(N(C)C)cccc12)C(=O)N[C@@H](CCCNC(=N)N)C(N)=O [Dansyl-DIR-amide] (Dansyl-Asp-Ile-Arg-NH2)	1
CC(C)C[C@H](NC(=O)[C@H](CC(=O)O)NS(=O)(=O)c1cccc2c(N(C)C)cccc12)C(=O)N[C@@H](CCCNC(=N)N)C(N)=O [Dansyl-DLR-amide] (Dansyl-Asp-Leu-Arg-NH2)	−14
CN(C)c1cccc2c(S(=O)(=O)N[C@@H](CC(=O)O)C(=O)N[C@@H](CC(N)=O)C(=O)N[C@@H](CCCNC(=N)N)C(N)=O)cccc12 [Dansyl-DNR-amide] (Dansyl-Asp-Asn-Arg-NH2)	−4
CN(C)c1cccc2c(S(=O)(=O)N[C@@H](CC(=O)O)C(=O)N3CCC[C@H]3C(=O)N[C@@H](CCCNC(=N)N)C(N)=O)cccc12 [Dansyl-DPR-amide] (Dansyl-Asp-Pro-Arg-NH2)	−2
CN(C)c1cccc2c(S(=O)(=O)N[C@@H](CC(=O)O)C(=O)N[C@@H](CCC(N)=O)C(=O)N[C@@H](CCCNC(=N)N)C(N)=O)cccc12 [Dansyl-DQR-amide] (Dansyl-Asp-Gln-Arg-NH2)	8
CN(C)c1cccc2c(S(=O)(=O)N[C@@H](CC(=O)O)C(=O)N[C@@H](CCCNC(=N)N)C(=O)N[C@@H](CCCNC(=N)N)C(N)=O)cccc12 [Dansyl-DRR-amide] (Dansyl-Asp-Arg-Arg-NH2)	−7
CN(C)c1cccc2c(S(=O)(=O)N[C@@H](CC(=O)O)C(=O)N[C@@H](Cc3ccc(O)cc3)C(=O)N[C@@H](CCCNC(=N)N)C(N)=O)cccc12 [Dansyl-DYR-amide] (Dansyl-Asp-Tyr-Arg-NH2)	−7
C[C@H](NC(=O)[C@H](CCC(=O)O)NS(=O)(=O)c1cccc2c(N(C)C)cccc12)C(=O)N[C@@H](CCCNC(=N)N)C(N)=O [Dansyl-EAR-amide] (Dansyl-Glu-Ala-Arg-NH2)	−32
CN(C)c1cccc2c(S(=O)(=O)N[C@@H](CCC(=O)O)C(=O)N[C@@H](CCC(=O)O)C(=O)N[C@@H](CCCNC(=N)N)C(N)=O)cccc12 [Dansyl-EER-amide] (Dansyl-Glu-Glu-Arg-NH2)	17
CN(C)c1cccc2c(S(=O)(=O)N[C@@H](CCC(=O)O)C(=O)N[C@@H](Cc3ccccc3)C(=O)N[C@@H](CCCNC(=N)N)C(N)=O)cccc12 [Dansyl-EFR-amide] (Dansyl-Glu-Phe-Arg-NH2)	15
CN(C)c1cccc2c(S(=O)(=O)N[C@@H](CCC(=O)O)C(=O)N[C@@H](CCCCN)C(=O)N[C@@H](CCCNC(=N)N)C(N)=O)cccc12 [Dansyl-EKR-amide] (Dansyl-Glu-Lys-Arg-NH2)	14
CSCC[C@H](NC(=O)[C@H](CCC(=O)O)NS(=O)(=O)c1cccc2c(N(C)C)cccc12)C(=O)N[C@@H](CCCNC(=N)N)C(N)=O [Dansyl-EMR-amide] (Dansyl-Glu-Met-Arg-NH2)	17
CN(C)c1cccc2c(S(=O)(=O)N[C@@H](CCC(=O)O)C(=O)N[C@@H](CC(N)=O)C(=O)N[C@@H](CCCNC(=N)N)C(N)=O)cccc12 [Dansyl-ENR-amide] (Dansyl-Glu-Asn-Arg-NH2)	18
CN(C)c1cccc2c(S(=O)(=O)N[C@@H](CCC(=O)O)C(=O)N3CCC[C@H]3C(=O)N[C@@H](CCCNC(=N)N)C(N)=O)cccc12 [Dansyl-EPR-amide] (Dansyl-Glu-Pro-Arg-NH2)	20
CN(C)c1cccc2c(S(=O)(=O)N[C@@H](CCC(=O)O)C(=O)N[C@@H](CCC(N)=O)C(=O)N[C@@H](CCCNC(=N)N)C(N)=O)cccc12 [Dansyl-EQR-amide] (Dansyl-Glu-Gln-Arg-NH2)	30
